Test results: US5597829A, “Lactone stable formulation of camptothecin and methods for uses thereof” (priority 1994, dated 1997)
Entries after “also recorded” stand apart in the source; their conditions may differ. Like-named read-outs stand apart in the source and are kept apart here.

Experiments:
[1] = cited from earlier work
[2] = cited from earlier work; remark: listed apart in the source
[3] = tested on: LD1210 leukemia; conditions: 10-100 mg/kg intraperitoneally; cited from earlier work
[4] = human, in vivo; cited from earlier work
[5] = Predicted outcome of administering lactone stable CPT to patients; assay type: in vivo, human
Source text: The novel features of the present invention include the following: (1) pharmaceutically acceptable formulations which allow the direct parenteral administration of lactone stable CPT to human subjects with cancer, (2) pharmaceutically acceptable formulations which allow the direct oral administration of lactone stable CPT to human subjects with cancer, and (3) dosages and schedules for the administration of lactone stable CPT to patients with cancer by parenteral and oral routes of administration. […] The inventors predict that by administering the carboxylate species of CPT a higher incidence of renal toxicity is observed than would be observed if the lactone species of CPT were administered.
Inventors claim that reason previous use of sodium CPT caused hemorrhagic cystitis relates to the enhanced renal excretion of the carboxylate form of CPT which when exposed to the lower pH (~pH 5) of the distal convoluted tubule in the kidney, the carboxylate form of CPT is converted to the lactone form of CPT. […] Elimination of CPT by the renal route is enhanced by administration of the carboxylate form and is reduced by administration of the lactone form.

[6] = cited from earlier work; remark: listed apart in the source
[7] = tested on: Topoisomerase I purified from human colon carcinoma cells or calf thymus; conditions: cited from earlier work
[8] = tested on: topoisomerase I-cleaved DNA complex; conditions: cited from earlier work
[9] = tested on: DNA; conditions: in vitro cells; cited from earlier work
[10] = tested on: L1210 cells; conditions: cited from earlier work
[11] = pH below 7.0; cited from earlier work
[12] = Oral absorption / bioavailability; assay type: in vivo; conditions: with taurocholic acid or salt in solution dosage composition
Source text: Taurocholic acid, a bile acid, may enhance in the intestinal absorption of the drug in certain patients. […] It is believed that this is due to the formation of a micellar solution of CPT on dilution thereof with the gastric contents.
Analogous to that of etoposide, it is believed that ingestion of the present dosage form of CPT and resulting dilution thereof by the stomach contents, results in the formation of a micellar solution of CPT in the stomach which is readily absorbed by the gastrointestinal tract.

[13] = cited from earlier work; remark: listed apart in the source
[14] = tested on: malignant melanoma; conditions: cited from earlier work
[15] = 24 hours after, once daily ×5, 6.5-20 mg/m^2 /day; cited from earlier work
[16] = carboxylate form; cited from earlier work
[17] = 5-day course (27 patients), 4 wks
[18] = 5-day course (27 patients), 8 wks
[19] = 5-day course (27 patients), 12 wks
[20] = 5-day course, 15 mg/m^2 × 5, 9 treated
[21] = 5-day course, 17 mg/m^2 × 5, 5 treated
[22] = 5-day course, 20 mg/m^2 × 5, 10 treated
[23] = single-dose (34 patients), 3 wks
[24] = single-dose (34 patients), 6 wks
[25] = single-dose (34 patients), 9 wks
[26] = single-dose (34 patients), 12 wks
[27] = single-dose, 110 mg/m^2, 2 treated
[28] = single-dose, 120 mg/m^2, 7 treated
[29] = single-dose, 180 mg/m^2, 9 treated

CC[C@@]1(O)C(=O)OCc2c1cc1n(c2=O)Cc2cc3cc4c(cc3nc2-1)OCO4 [10,11 methylene dioxycamptothecin]
solubility in water [1]: relatively insoluble in water

CC[C@@]1(O)C(=O)OCc2c1cc1n(c2=O)Cc2cc3ccccc3nc2-1 [CPT, camptothecin]
cystitis as nonhematologic toxic effect ([2]; human, in vivo): Cystitis was another toxic effect occurring frequently | excretion ([2]; human, in vivo): excreted unchanged by the kidneys | T/C (treated/control) ratios [3]: superior T/C (treated/control) ratios relative to mice treated in the same manner with 7-ethyl camptothecin (ECPT) and 10-hydroxy 7-ethyl camptothecin (HECPT); also recorded: inferior to that of CPT-11 administration under the same conditions | toxicity in clinical trials [4]: unpredictable myelosuppression and hemorrhagic cystitis | renal elimination of CPT ([5]; oral or parenteral, lactone form, expected): minimal | frequency of hemorrhagic cystitis relative to sodium CPT ([5]; predicted): significantly reduced | investigators' conclusion on toxicity and clinical value ([6]; gastrointestinal cancer): a drug of protean and unpredictable toxicity that has no clinical value | inhibition of topoisomerase I [7]: inhibited | stabilization of the cleavable complex [8]: only the closed lactone form of the drug helps stabilize the cleavable complex | nature of DNA strand breaks [9]: Virtually all of the DNA strand breaks observed in vitro cells treated with CPT are protein linked | unexplained protein-free breaks [10]: an increase in unexplained protein-free breaks can be detected | form predominating [11]: closed form of CPT predominates | absorption following ingestion [12]: improved absorption of the drug following ingestion

sodium salt of camptothecin [CPT sodium]
Bladder toxicity, dose limiting ([2]; doses of 20 to 30 mg/m^2): three | Bladder toxicity, additional patients ([2]; doses of 44 and 30 mg/m^2): two | clinical benefit ([2]; eight patients with measurable disease, 5-day courses): No clinical benefit was observed | cystitis as nonhematologic toxic effect ([2]; human, in vivo): Cystitis was the most prominent nonhematologic toxic effect | major dose-limiting toxic effect ([2]; human, in vivo): Reversible leukopenia | prolonged leukopenia after daily treatment ([2]; total dose of 100 mg/m^2): four | clinical responses ([2]; weekly courses): two | toxicity in clinical trials [4]: unpredictable and severe myelosuppression, gastrointestinal toxicity, hemorrhagic cystitis, and alopecia | Cystitis ([6]; 5-Day Course, P < 0.05): 48 % of 27 Patients | Objective results: Improved [6, 17]: 1 patients | Objective results: Stable [6, 17]: 12 patients | Objective results: Worse [6, 17]: 14 patients | Objective results: Stable [6, 18]: 7 patients | Objective results: Worse [6, 18]: 20 patients | Objective results: Stable [6, 19]: 6 patients | Objective results: Worse [6, 19]: 21 patients | Cystitis, No. of Patients ([6]; 5-day course, 11 mg/m^2 × 5, 2 treated): 1 No. of Patients | Cystitis, No. of Patients [6, 20]: 4 No. of Patients | Diarrhea, No. of Patients [6, 20]: 1 No. of Patients | Cystitis, No. of Patients [6, 21]: 2 No. of Patients | Diarrhea, No. of Patients [6, 21]: 4 No. of Patients | Cystitis, No. of Patients [6, 22]: 6 No. of Patients | Diarrhea, No. of Patients [6, 22]: 4 No. of Patients | Diarrhea, No. of Patients ([6]; 5-day course, 22 mg/m^2 × 5, 1 treated): 1 No. of Patients | Cystitis ([6]; Single Dose): 24 % of 34 Patients | partial objective improvement ([6]; after 2 months (8 or 9 weeks), both large bowel cancer): two | improvement ([6]; at 3 months, 61 patients): none showed improvement | 25%-50% response ([6]; at 3 wks only): 3 patients | persistence of severe diarrhea ([6]; higher doses): ≤ 4 weeks | onset of cystitis ([6]; human, in vivo): 7 to 10 days | Objective results: Improved [6, 23]: 4 patients | Objective results: Stable [6, 23]: 17 patients | Objective results: Worse [6, 23]: 13 patients | Objective results: Improved [6, 24]: 2 patients | Objective results: Stable [6, 24]: 11 patients | Objective results: Worse [6, 24]: 21 patients | Objective results: Improved [6, 25]: 2 patients | Objective results: Stable [6, 25]: 8 patients | Objective results: Worse [6, 25]: 24 patients | Objective results: Stable [6, 26]: 6 patients | Objective results: Worse [6, 26]: 28 patients | Cystitis, No. of Patients ([6]; single-dose, 100 mg/m^2, 6 treated): 2 No. of Patients | Cystitis, No. of Patients [6, 27]: 1 No. of Patients | Diarrhea, No. of Patients [6, 27]: 1 No. of Patients | Cystitis, No. of Patients [6, 28]: 2 No. of Patients | Diarrhea, No. of Patients [6, 28]: 4 No. of Patients | Cystitis, No. of Patients [6, 29]: 3 No. of Patients | Diarrhea, No. of Patients [6, 29]: 2 No. of Patients | mean urine recovery of CPT ([13]; first 48 hours, iv): 17.4% | urine recovery of CPT, range ([13]; first 48 hours, iv): 3.6-38.9% | mean urine recovery of CPT excluding the 5 patients with impaired excretion ([13]; iv, 2880 min): 22.8% | sterile hemorrhagic cystitis ([13]; moderately dehydrated patients): 3 patients | 50% or greater decrease in tumor diameter ([14]; 90-360 mg/m^2 every 2 weeks, fifteen patients): None | myelosuppression ([14]; fifteen patients): 11 patients | toxic effects ([14]; human, in vivo): nausea and vomiting, alopecia, diarrhea, and hemorrhagic cystitis | less pronounced transient tumor regression ([14]; no clinical benefit, fifteen patients): three | relation of plasma CPT levels to dose [15]: little relation to the dose given

CC[C@@](O)(C(=O)O)c1cc2n(c(=O)c1CO)Cc1cc3ccccc3nc1-2 [carboxylate form of CPT]
reduction of antitumor activity [16]: at least 10 fold
